Laboratory results from PubChem BioAssay (NCI).
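The concentration for 50% growth inhibition is given as GI50. TGI: concentration producing complete growth inhibition.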

Assays:
Assay in all cases: NCI-60 cell line screen, 384-well format
SF-539 CNS = tested on: SF-539 CNS
HCC-2998 colon = tested on: HCC-2998 colon
NCI-H322M lung = tested on: NCI-H322M lung
OVCAR-3 ovarian = tested on: OVCAR-3 ovarian
PC-3 prostate = tested on: PC-3 prostate
RPMI-8226 leukemia = tested on: RPMI-8226 leukemia
SF-268 CNS = tested on: SF-268 CNS
OVCAR-5 ovarian = tested on: OVCAR-5 ovarian
HOP-92 NSCLC = tested on: HOP-92 NSCLC
CAKI-1 renal = tested on: CAKI-1 renal
COLO 205 colon = tested on: COLO 205 colon
MCF7 breast = tested on: MCF7 breast
SK-MEL-2 melanoma = tested on: SK-MEL-2 melanoma
MOLT-4 leukemia = tested on: MOLT-4 leukemia
MDA-MB-468 breast = tested on: MDA-MB-468 breast
KM12 colon = tested on: KM12 colon
IGROV1 ovarian = tested on: IGROV1 ovarian
NCI-H226 lung = tested on: NCI-H226 lung
UACC-62 melanoma = tested on: UACC-62 melanoma
MDA-MB-231 breast = tested on: MDA-MB-231 breast
NCI-H23 lung = tested on: NCI-H23 lung
SF-295 CNS = tested on: SF-295 CNS
SNB-75 CNS = tested on: SNB-75 CNS
T-47D breast = tested on: T-47D breast
SW-620 colon = tested on: SW-620 colon
HT29 colon = tested on: HT29 colon
BT-549 breast = tested on: BT-549 breast
OVCAR-4 ovarian = tested on: OVCAR-4 ovarian
DU-145 prostate = tested on: DU-145 prostate
786-0 renal = tested on: 786-0 renal
RXF 393 renal = tested on: RXF 393 renal
ACHN renal = tested on: ACHN renal
NCI-H460 NSCLC = tested on: NCI-H460 NSCLC
SNB-19 CNS = tested on: SNB-19 CNS
HOP-62 NSCLC = tested on: HOP-62 NSCLC
CCRF-CEM leukemia = tested on: CCRF-CEM leukemia
A498 renal = tested on: A498 renal
SN12C renal = tested on: SN12C renal
M14 melanoma = tested on: M14 melanoma
HCT-15 colon = tested on: HCT-15 colon
SK-MEL-5 melanoma = tested on: SK-MEL-5 melanoma
UACC-257 melanoma = tested on: UACC-257 melanoma
SR leukemia = tested on: SR leukemia
U251 glioblastoma = tested on: U251 glioblastoma
EKVX NSCLC = tested on: EKVX NSCLC
MDA-MB-435 melanoma = tested on: MDA-MB-435 melanoma
SK-MEL-28 melanoma = tested on: SK-MEL-28 melanoma
HL-60(TB) leukemia = tested on: HL-60(TB) leukemia
HS 578T breast = tested on: HS 578T breast
NCI/ADR-RES ovarian = tested on: NCI/ADR-RES ovarian
MALME-3M melanoma = tested on: MALME-3M melanoma
SK-OV-3 ovarian = tested on: SK-OV-3 ovarian
A549 NSCLC = tested on: A549 NSCLC
NCI-H522 lung = tested on: NCI-H522 lung
TK-10 renal = tested on: TK-10 renal
OVCAR-8 ovarian = tested on: OVCAR-8 ovarian

O=c1c(O)c(-c2ccc(O)c(O)c2)oc2cc(O)cc(O)c12
GI50 (SF-539 CNS): 14.5 µM | TGI (SF-539 CNS): 32.6 µM | GI50 (HCC-2998 colon): 29.4 µM | TGI (HCC-2998 colon): 93.2 µM | GI50 (NCI-H322M lung): 26.1 µM | TGI (NCI-H322M lung): 98.8 µM | GI50 (OVCAR-3 ovarian): 16.2 µM | TGI (OVCAR-3 ovarian): 42.3 µM | GI50 (PC-3 prostate): 25.5 µM | TGI (PC-3 prostate): 74.5 µM | GI50 (RPMI-8226 leukemia): 15.3 µM | TGI (RPMI-8226 leukemia): 33.9 µM | GI50 (SF-268 CNS): 17.3 µM | TGI (SF-268 CNS): 40.2 µM | GI50 (OVCAR-5 ovarian): 20.9 µM | TGI (OVCAR-5 ovarian): 62.5 µM | GI50 (HOP-92 NSCLC): 20.8 µM | TGI (HOP-92 NSCLC): 65.7 µM | GI50 (CAKI-1 renal): 44.8 µM | TGI (CAKI-1 renal): > 100 µM | GI50 (COLO 205 colon): > 100 µM | TGI (COLO 205 colon): > 100 µM | GI50 (MCF7 breast): 18.9 µM | TGI (MCF7 breast): 33.8 µM | GI50 (SK-MEL-2 melanoma): 19.1 µM | TGI (SK-MEL-2 melanoma): 39.6 µM | GI50 (MOLT-4 leukemia): 13.6 µM | TGI (MOLT-4 leukemia): 26.6 µM | GI50 (MDA-MB-468 breast): 2.54 µM | TGI (MDA-MB-468 breast): 7.46 µM | GI50 (KM12 colon): 22.9 µM | TGI (KM12 colon): 96.5 µM | GI50 (IGROV1 ovarian): 20.5 µM | TGI (IGROV1 ovarian): 55.7 µM | GI50 (NCI-H226 lung): 24.1 µM | TGI (NCI-H226 lung): 69 µM | GI50 (UACC-62 melanoma): 16.6 µM | TGI (UACC-62 melanoma): 33.5 µM | GI50 (MDA-MB-231 breast): 10.9 µM | TGI (MDA-MB-231 breast): 40.3 µM | GI50 (NCI-H23 lung): 13.2 µM | TGI (NCI-H23 lung): 29.7 µM | GI50 (SF-295 CNS): 17.3 µM | TGI (SF-295 CNS): 33.2 µM | GI50 (SNB-75 CNS): 14.3 µM | TGI (SNB-75 CNS): 30.5 µM | GI50 (T-47D breast): 19.9 µM | TGI (T-47D breast): 36.8 µM | GI50 (SW-620 colon): 41.9 µM | TGI (SW-620 colon): > 100 µM | GI50 (HT29 colon): 46.4 µM | TGI (HT29 colon): > 100 µM | GI50 (BT-549 breast): 17 µM | TGI (BT-549 breast): 61.7 µM | GI50 (OVCAR-4 ovarian): 19.1 µM | TGI (OVCAR-4 ovarian): 44.5 µM | GI50 (DU-145 prostate): 24.4 µM | TGI (DU-145 prostate): 94 µM | GI50 (786-0 renal): 36.5 µM | TGI (786-0 renal): > 100 µM | GI50 (RXF 393 renal): 18 µM | TGI (RXF 393 renal): 56.2 µM | GI50 (ACHN renal): 35.1 µM | TGI (ACHN renal): 88.2 µM | GI50 (NCI-H460 NSCLC): 14.9 µM | TGI (NCI-H460 NSCLC): 31.7 µM | GI50 (SNB-19 CNS): 24.9 µM | TGI (SNB-19 CNS): 71.7 µM | GI50 (HOP-62 NSCLC): 11.1 µM | TGI (HOP-62 NSCLC): 23.1 µM | GI50 (CCRF-CEM leukemia): 13.7 µM | TGI (CCRF-CEM leukemia): 26.7 µM | GI50 (A498 renal): 14.2 µM | TGI (A498 renal): 73.2 µM | GI50 (SN12C renal): 28.8 µM | TGI (SN12C renal): 79.8 µM | GI50 (M14 melanoma): 20.5 µM | TGI (M14 melanoma): 47.1 µM | GI50 (HCT-15 colon): 27 µM | TGI (HCT-15 colon): 97.4 µM | GI50 (SK-MEL-5 melanoma): 16.8 µM | TGI (SK-MEL-5 melanoma): 53.4 µM | GI50 (UACC-257 melanoma): 23.4 µM | TGI (UACC-257 melanoma): > 100 µM | GI50 (SR leukemia): 1.94 µM | TGI (SR leukemia): 3.53 µM | GI50 (U251 glioblastoma): 12.8 µM | TGI (U251 glioblastoma): 36 µM | GI50 (EKVX NSCLC): 24.6 µM | TGI (EKVX NSCLC): > 100 µM | GI50 (MDA-MB-435 melanoma): 17 µM | TGI (MDA-MB-435 melanoma): 54.6 µM | GI50 (SK-MEL-28 melanoma): 33.2 µM | TGI (SK-MEL-28 melanoma): 93.1 µM | GI50 (HL-60(TB) leukemia): 12.4 µM | TGI (HL-60(TB) leukemia): 25.3 µM | GI50 (HS 578T breast): 6.06 µM | TGI (HS 578T breast): 23.1 µM | GI50 (NCI/ADR-RES ovarian): 20 µM | TGI (NCI/ADR-RES ovarian): 40.2 µM | GI50 (MALME-3M melanoma): 20 µM | TGI (MALME-3M melanoma): 76.4 µM | GI50 (SK-OV-3 ovarian): 19.8 µM | TGI (SK-OV-3 ovarian): 51.7 µM | GI50 (A549 NSCLC): 28.2 µM | TGI (A549 NSCLC): > 100 µM | GI50 (NCI-H522 lung): 8.75 µM | TGI (NCI-H522 lung): 43.1 µM | GI50 (TK-10 renal): 45.4 µM | TGI (TK-10 renal): > 100 µM | GI50 (OVCAR-8 ovarian): 20.9 µM | TGI (OVCAR-8 ovarian): 55.2 µM
